Results reported in patent US20080009418A1, “Selective Inhibitors” (Alchemia LTD., priority 2004, published 2008).

Assays:
Human δ-opioid (DOP) = target: T1, Human δ-opioid (DOP) (Homo sapiens, UniProt P41143); assay: Radioligand binding, human δ-opioid (DOP) membranes, FlashPlate, [3H]-Bremazocine; settings: compound at 10 μM; for A1: inhibition of radioligand binding, human δ-opioid (DOP): [3H]-Bremazocine
T1 construct: purchased Perkin Elmer Biosignal
How it was run: (§1)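 Cloned human receptor membranes were coated onto FlashPlate wells and incubated with radioligand and compound (added from a 0.5 mM DMSO daughter plate) for 1 hour at room temperature in the dark. Scintillation counting gave percent inhibition, with DMSO defining total and reference ligand defining non-specific binding.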

Human κ-Opioid (KOP) = target: T2, Human κ-Opioid (KOP) (Homo sapiens, UniProt P41145); assay: Radioligand binding, human κ-opioid (KOP) membranes, filtration, [3H]-Diprenorphine; settings: compound at 10 μM; for A2: inhibition of radioligand binding, human κ-opioid (KOP): [3H]-Diprenorphine
T2 construct: purchased Perkin Elmer Biosignal
T2 sequence (P41145 whole entry): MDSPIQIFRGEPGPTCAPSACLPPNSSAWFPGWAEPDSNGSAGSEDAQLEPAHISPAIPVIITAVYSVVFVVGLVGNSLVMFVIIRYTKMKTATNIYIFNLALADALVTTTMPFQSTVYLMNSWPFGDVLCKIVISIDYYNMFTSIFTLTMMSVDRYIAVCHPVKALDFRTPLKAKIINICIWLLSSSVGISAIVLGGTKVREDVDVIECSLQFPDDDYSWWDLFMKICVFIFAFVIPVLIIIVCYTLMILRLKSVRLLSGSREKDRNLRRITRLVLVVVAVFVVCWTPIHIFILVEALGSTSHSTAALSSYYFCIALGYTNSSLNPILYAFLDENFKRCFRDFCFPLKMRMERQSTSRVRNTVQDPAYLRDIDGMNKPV
How it was run: (§2)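 Percent inhibition of radioligand binding measured on recombinant human membranes: NK1 with [125I]-Substance P, KOP with [3H]-Diprenorphine. Incubation 1 h at room temperature, then harvest onto 0.3% PEI-soaked filters, cold Tris-HCl pH 7.4 washes and scintillation counting; non-specific binding from reference ligand wells.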

Human Melanocortin (MC3) = target: T3, Human Melanocortin (MC3) (Homo sapiens, UniProt P41968); assay: Radioligand binding, human melanocortin MC3 membranes, FlashPlate, [125I]-NDP-αMSH; settings: compound at 10 μM; for A3: inhibition of radioligand binding, human melanocortin (MC3): [125I]-NDP-αMSH
T3 construct: purchased Perkin Elmer Biosignal
T3 sequence (P41968 whole entry): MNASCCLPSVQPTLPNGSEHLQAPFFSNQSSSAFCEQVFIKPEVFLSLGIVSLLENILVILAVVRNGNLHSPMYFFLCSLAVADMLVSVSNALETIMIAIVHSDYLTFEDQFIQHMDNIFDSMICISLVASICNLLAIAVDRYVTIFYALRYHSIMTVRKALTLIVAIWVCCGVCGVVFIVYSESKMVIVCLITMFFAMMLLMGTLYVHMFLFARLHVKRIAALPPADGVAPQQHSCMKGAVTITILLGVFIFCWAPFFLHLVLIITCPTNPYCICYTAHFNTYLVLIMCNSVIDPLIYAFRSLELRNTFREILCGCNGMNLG
How it was run: as §1

Human Melanocortin (MC4) = target: T4, Human Melanocortin (MC4) (Homo sapiens, UniProt P32245); assay: Radioligand binding, human melanocortin MC4 membranes, FlashPlate, [125I]-NDP-αMSH; settings: compound at 10 μM; for A4: inhibition of radioligand binding, human melanocortin (MC4): [125I]-NDP-αMSH
T4 construct: purchased Perkin Elmer Biosignal
T4 sequence (P32245 whole entry): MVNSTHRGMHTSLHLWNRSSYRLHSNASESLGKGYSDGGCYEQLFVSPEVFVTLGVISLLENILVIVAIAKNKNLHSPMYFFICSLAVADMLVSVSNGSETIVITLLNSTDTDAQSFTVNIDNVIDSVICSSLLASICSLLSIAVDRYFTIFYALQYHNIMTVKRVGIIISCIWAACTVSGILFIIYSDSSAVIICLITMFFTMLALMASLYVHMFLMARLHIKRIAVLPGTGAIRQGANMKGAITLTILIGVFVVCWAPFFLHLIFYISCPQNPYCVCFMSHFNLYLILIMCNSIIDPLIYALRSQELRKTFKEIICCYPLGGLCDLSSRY
How it was run: as §1

Human melanocortin (MC5) = target: T5, Human melanocortin (MC5) (Homo sapiens, UniProt P33032); assay: Radioligand binding, human melanocortin MC5 membranes, FlashPlate, [125I]-NDP-αMSH; settings: compound at 10 μM; for A5: inhibition of radioligand binding, human melanocortin (MC5): [125I]-NDP-αMSH
T5 construct: purchased Perkin Elmer Biosignal
T5 sequence (P33032 whole entry): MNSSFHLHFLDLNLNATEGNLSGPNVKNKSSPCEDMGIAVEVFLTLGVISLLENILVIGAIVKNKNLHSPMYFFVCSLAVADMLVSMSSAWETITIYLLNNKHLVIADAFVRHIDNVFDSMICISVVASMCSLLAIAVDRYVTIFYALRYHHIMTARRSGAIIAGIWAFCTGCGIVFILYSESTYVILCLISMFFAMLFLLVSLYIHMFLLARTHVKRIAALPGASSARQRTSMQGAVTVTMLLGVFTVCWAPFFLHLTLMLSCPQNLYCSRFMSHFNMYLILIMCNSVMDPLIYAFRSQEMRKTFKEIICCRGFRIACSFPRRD
How it was run: as §1

[1] = target: T6, Human melanin-concentrating hormone (MCH1) (Homo sapiens, UniProt Q99705); assay: Radioligand binding, human melanin-concentrating hormone MCH1 membranes, FlashPlate, [125I]-S36057; settings: compound at 10 μM; for A6: inhibition of radioligand binding, human melanin-concentrating hormone (MCH1): [125I]-S36057
T6 construct: purchased Perkin Elmer Biosignal
T6 sequence (Q99705 whole entry): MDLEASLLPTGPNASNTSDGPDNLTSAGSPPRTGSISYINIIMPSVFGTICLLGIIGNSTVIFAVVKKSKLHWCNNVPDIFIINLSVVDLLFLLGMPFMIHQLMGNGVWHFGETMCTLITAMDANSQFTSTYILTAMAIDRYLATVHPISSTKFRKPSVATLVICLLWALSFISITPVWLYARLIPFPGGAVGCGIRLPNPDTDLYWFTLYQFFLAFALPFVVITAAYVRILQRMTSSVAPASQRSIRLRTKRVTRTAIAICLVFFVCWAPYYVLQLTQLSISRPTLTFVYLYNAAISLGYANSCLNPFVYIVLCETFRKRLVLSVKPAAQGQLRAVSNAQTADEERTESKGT
How it was run: as §1

Human μ-opioid (MOP) = target: T7, Human μ-opioid (MOP) (Homo sapiens, UniProt P35372); assay: Radioligand binding, human μ-opioid (MOP) membranes, FlashPlate, [3H]-Naloxone; settings: compound at 10 μM; for A7: inhibition of radioligand binding, human μ-opioid (MOP): [3H]-Naloxone
T7 construct: purchased Perkin Elmer Biosignal
T7 sequence (P35372 whole entry): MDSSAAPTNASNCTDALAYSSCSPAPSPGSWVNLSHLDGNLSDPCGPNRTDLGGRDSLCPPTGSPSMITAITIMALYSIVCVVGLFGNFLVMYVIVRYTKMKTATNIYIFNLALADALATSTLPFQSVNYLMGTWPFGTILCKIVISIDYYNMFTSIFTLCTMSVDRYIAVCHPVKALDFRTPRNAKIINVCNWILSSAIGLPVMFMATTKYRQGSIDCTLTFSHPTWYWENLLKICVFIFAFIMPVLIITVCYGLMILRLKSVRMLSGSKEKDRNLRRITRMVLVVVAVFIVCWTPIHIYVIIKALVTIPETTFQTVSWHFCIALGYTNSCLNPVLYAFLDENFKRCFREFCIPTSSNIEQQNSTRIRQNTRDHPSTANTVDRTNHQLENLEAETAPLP
How it was run: as §1

Human neurokinin (NK1) = target: T8, Human neurokinin (NK1) (Homo sapiens, UniProt P25103); assay: Radioligand binding, human neurokinin NK1 membranes, filtration, [125I]-Substance P; settings: compound at 10 μM; for A8: inhibition of radioligand binding, human neurokinin (NK1): [125I]-Substance P
T8 construct: purchased Perkin Elmer Biosignal
T8 sequence (P25103 whole entry): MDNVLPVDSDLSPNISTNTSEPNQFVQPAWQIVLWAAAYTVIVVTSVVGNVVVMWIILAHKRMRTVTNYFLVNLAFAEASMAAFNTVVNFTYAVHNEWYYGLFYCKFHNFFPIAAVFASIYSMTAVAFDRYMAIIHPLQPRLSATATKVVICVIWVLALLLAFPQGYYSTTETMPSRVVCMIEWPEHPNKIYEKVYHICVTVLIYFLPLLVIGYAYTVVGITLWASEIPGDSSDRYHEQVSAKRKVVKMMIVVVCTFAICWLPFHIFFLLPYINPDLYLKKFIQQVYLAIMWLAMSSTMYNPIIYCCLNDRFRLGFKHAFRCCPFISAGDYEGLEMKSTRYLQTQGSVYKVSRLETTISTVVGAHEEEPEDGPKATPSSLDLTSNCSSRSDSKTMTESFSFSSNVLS
How it was run: as §2

[2] = target: T9, Human neuropeptide Y (NPY-Y1) (Homo sapiens, UniProt P25929); assay: Radioligand binding, human neuropeptide Y NPY-Y1 membranes, FlashPlate, [125I]-PYY; settings: compound at 10 μM; for A9: inhibition of radioligand binding, human neuropeptide Y (NPY-Y1): [125I]-PYY
T9 construct: purchased Perkin Elmer Biosignal
T9 sequence (P25929 1-384): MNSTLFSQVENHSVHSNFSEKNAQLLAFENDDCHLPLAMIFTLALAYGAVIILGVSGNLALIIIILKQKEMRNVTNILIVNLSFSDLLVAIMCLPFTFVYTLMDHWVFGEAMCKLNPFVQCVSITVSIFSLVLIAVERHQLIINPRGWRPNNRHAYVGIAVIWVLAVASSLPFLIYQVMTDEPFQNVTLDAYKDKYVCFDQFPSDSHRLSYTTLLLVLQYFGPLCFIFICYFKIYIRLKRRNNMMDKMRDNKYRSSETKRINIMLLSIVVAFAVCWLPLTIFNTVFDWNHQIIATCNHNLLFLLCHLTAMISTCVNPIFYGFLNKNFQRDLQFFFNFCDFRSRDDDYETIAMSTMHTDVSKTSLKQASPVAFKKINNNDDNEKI
How it was run: as §1

Human opioid (ORL1) = target: T10, Human opioid (ORL1) (Homo sapiens, UniProt P41146); assay: Radioligand binding, human opioid ORL1 membranes, FlashPlate, [125I]-Nociceptin; settings: compound at 10 μM; for A10: inhibition of radioligand binding, human opioid (ORL1): [125I]-Nociceptin
T10 construct: purchased Perkin Elmer Biosignal
T10 sequence (P41146 whole entry): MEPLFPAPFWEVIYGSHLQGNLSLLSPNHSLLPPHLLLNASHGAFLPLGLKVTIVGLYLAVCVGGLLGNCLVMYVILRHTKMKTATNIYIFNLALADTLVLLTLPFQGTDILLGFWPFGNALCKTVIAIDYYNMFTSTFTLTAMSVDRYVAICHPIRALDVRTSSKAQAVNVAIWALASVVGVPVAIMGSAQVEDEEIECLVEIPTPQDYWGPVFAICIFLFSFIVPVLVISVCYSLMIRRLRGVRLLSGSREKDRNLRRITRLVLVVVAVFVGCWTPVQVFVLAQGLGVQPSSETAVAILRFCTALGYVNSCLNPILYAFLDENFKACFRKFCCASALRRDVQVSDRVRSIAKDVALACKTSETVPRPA
How it was run: as §1

Mouse urotensin (mUR2) = target: T11, Mouse urotensin (mUR2) (Mus musculus, UniProt Q8VIH9); assay: Radioligand binding, mouse urotensin mUR2 membranes, FlashPlate, [125I]-Urotensin II; settings: compound at 10 μM; for A11: inhibition of radioligand binding, mouse urotensin (mUR2): [125I]-Urotensin II
T11 construct: purchased Perkin Elmer Biosignal
T11 sequence (Q8VIH9 1-385): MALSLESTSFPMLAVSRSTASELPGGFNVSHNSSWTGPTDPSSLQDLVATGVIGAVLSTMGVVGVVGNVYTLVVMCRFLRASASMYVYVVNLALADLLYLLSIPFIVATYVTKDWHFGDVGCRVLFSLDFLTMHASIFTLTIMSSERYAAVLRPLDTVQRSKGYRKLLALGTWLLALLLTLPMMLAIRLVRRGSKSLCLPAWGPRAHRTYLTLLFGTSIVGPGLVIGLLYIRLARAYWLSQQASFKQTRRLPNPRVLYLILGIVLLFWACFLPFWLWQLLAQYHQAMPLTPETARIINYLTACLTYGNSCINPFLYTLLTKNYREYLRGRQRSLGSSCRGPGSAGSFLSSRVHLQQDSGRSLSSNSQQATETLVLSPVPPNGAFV
How it was run: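 Cloned mouse urotensin (mUR2) receptor membranes from Perkin Elmer Biosignal were immobilized in FlashPlate microplates using a proprietary coating. Each well got 19.5 μl buffer, then 0.5 μl of DMSO, reference ligand, or compound. Adding 5 μl of [125I]-Urotensin II, diluted to 5× final concentration in binding buffer, started binding. Plates were sealed with TopSeal-A and incubated 1 hour at room temperature in the dark. Wells were counted for 30 seconds each on a TopCount after a 60-second delay, and percentage inhibition was calculated.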

T1 sequence (P41143 whole entry): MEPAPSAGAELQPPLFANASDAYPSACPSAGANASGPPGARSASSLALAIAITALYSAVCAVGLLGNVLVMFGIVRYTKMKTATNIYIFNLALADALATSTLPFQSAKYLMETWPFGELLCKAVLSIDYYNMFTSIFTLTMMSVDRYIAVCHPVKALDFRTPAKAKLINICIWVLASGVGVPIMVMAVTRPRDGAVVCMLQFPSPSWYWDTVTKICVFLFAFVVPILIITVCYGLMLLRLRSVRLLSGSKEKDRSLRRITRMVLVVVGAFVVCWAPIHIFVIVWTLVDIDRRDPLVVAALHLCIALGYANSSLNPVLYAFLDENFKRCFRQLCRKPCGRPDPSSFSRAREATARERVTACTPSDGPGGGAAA

SMILES	A1: inhibition of radioligand binding, human δ-opioid (DOP) (Human δ-opioid (DOP))	A2: inhibition of radioligand binding, human κ-opioid (KOP) (Human κ-Opioid (KOP))	A3: inhibition of radioligand binding, human melanocortin (MC3) (Human Melanocortin (MC3))	A4: inhibition of radioligand binding, human melanocortin (MC4) (Human Melanocortin (MC4); 10 µM)	A6: inhibition of radioligand binding, human melanin-concentrating hormone (MCH1) ([1]; 10 µM)	A7: inhibition of radioligand binding, human μ-opioid (MOP) (Human μ-opioid (MOP))	A8: inhibition of radioligand binding, human neurokinin (NK1) (Human neurokinin (NK1))	A9: inhibition of radioligand binding, human neuropeptide Y (NPY-Y1) [2]	A10: inhibition of radioligand binding, human opioid (ORL1) (Human opioid (ORL1))	A11: inhibition of radioligand binding, mouse urotensin (mUR2) (Mouse urotensin (mUR2))	A4: inhibition of radioligand binding, human melanocortin (MC4) (Human Melanocortin (MC4))	A5: inhibition of radioligand binding, human melanocortin (MC5) (Human melanocortin (MC5))	A6: inhibition of radioligand binding, human melanin-concentrating hormone (MCH1) [1]	A10: inhibition of radioligand binding, human opioid (ORL1) (Human opioid (ORL1); 10 µM)	further results
NCCCC(=O)NC1C(OCc2ccc(Cl)cc2)OC(COCc2ccccc2)C(O)C1OCc1ccc(Cl)cc1 (single isomer, unassigned) [compound 492]	− (“−” indicates less than 50% inhibition at 10 μM)	− (“−” indicates less than 50% inhibition at 10 μM)	− (“−” indicates less than 50% inhibition at 10 μM)	+ (“+” indicates greater than 50% inhibition at 10 μM)	+ (“+” indicates greater than 50% inhibition at 10 μM)	− (“−” indicates less than 50% inhibition at 10 μM)	+ (“+” indicates greater than 50% inhibition at 10 μM)	− (“−” indicates less than 50% inhibition at 10 μM)	+ (“+” indicates greater than 50% inhibition at 10 μM)	− (“−” indicates less than 50% inhibition at 10 μM)					A5: inhibition of radioligand binding, human melanocortin (MC5) (Human melanocortin (MC5); 10 µM): + (“+” indicates greater than 50% inhibition at 10 μM)
COC[C@H]1OC(OCc2ccccc2)[C@H](NC(=O)CNC(=N)N)[C@@H](OCc2ccc(Cl)cc2)[C@@H]1O (stereo partly shown) [compound 27]															A1 radioligand binding inhibition (Human δ-opioid (DOP); human δ-opioid (DOP) membranes): − (“−” indicates less than 50% inhibition at 10 μM); A2 radioligand binding inhibition (Human κ-Opioid (KOP); human κ-opioid (KOP) membranes): − (“−” indicates less than 50% inhibition at 10 μM); A3 radioligand binding inhibition (Human Melanocortin (MC3); human melanocortin MC3 membranes): − (“−” indicates less than 50% inhibition at 10 μM); A4 radioligand binding inhibition (Human Melanocortin (MC4); human melanocortin MC4 membranes): − (“−” indicates less than 50% inhibition at 10 μM); A5 radioligand binding inhibition (Human melanocortin (MC5); human melanocortin MC5 membranes): + (“+” indicates greater than 50% inhibition at 10 μM); A6 radioligand binding inhibition ([1]; human MCH1 membranes): − (“−” indicates less than 50% inhibition at 10 μM); A7 radioligand binding inhibition (Human μ-opioid (MOP); human μ-opioid (MOP) membranes): − (“−” indicates less than 50% inhibition at 10 μM); A8 radioligand binding inhibition (Human neurokinin (NK1); human neurokinin NK1 membranes): − (“−” indicates less than 50% inhibition at 10 μM); A9 radioligand binding inhibition ([2]; human NPY-Y1 membranes): − (“−” indicates less than 50% inhibition at 10 μM); A10 radioligand binding inhibition (Human opioid (ORL1); human ORL1 membranes): − (“−” indicates less than 50% inhibition at 10 μM); A11 radioligand binding inhibition (Mouse urotensin (mUR2); mouse urotensin mUR2 membranes): − (“−” indicates less than 50% inhibition at 10 μM)
COCC1OC(NC(=O)Cc2ccccc2)C(NC(=O)CCCN)C(OCc2ccc3ccccc3c2)C1O (stereo not shown) [compound 543]	− (“−” indicates less than 50% inhibition at 10 μM)	− (“−” indicates less than 50% inhibition at 10 μM)	− (“−” indicates less than 50% inhibition at 10 μM)			− (“−” indicates less than 50% inhibition at 10 μM)	+ (“+” indicates greater than 50% inhibition at 10 μM)	− (“−” indicates less than 50% inhibition at 10 μM)	− (“−” indicates less than 50% inhibition at 10 μM)	− (“−” indicates less than 50% inhibition at 10 μM)	− (“−” indicates less than 50% inhibition at 10 μM)	− (“−” indicates less than 50% inhibition at 10 μM)	− (“−” indicates less than 50% inhibition at 10 μM)		
NCCCC(=O)NC1C(OCc2ccc(Cl)cc2)OC(COCc2ccc(Cl)cc2)C(O)C1OCc1ccccc1 (single isomer, unassigned) [compound 505]	− (“−” indicates less than 50% inhibition at 10 μM)	− (“−” indicates less than 50% inhibition at 10 μM)	− (“−” indicates less than 50% inhibition at 10 μM)				+ (“+” indicates greater than 50% inhibition at 10 μM)	− (“−” indicates less than 50% inhibition at 10 μM)		− (“−” indicates less than 50% inhibition at 10 μM)	− (“−” indicates less than 50% inhibition at 10 μM)	+ (“+” indicates greater than 50% inhibition at 10 μM)	− (“−” indicates less than 50% inhibition at 10 μM)	− (“−” indicates less than 50% inhibition at 10 μM)	A7: inhibition of radioligand binding, human μ-opioid (MOP) (Human μ-opioid (MOP); 10 µM): + (“+” indicates greater than 50% inhibition at 10 μM)
NCCC(=O)NC1C(OCc2ccc(Cl)cc2)OC(COCc2ccc3ccccc3c2)C(O)C1OCc1ccc2ccccc2c1 (single isomer, unassigned) [compound 478]	− (“−” indicates less than 50% inhibition at 10 μM)	− (“−” indicates less than 50% inhibition at 10 μM)		+ (“+” indicates greater than 50% inhibition at 10 μM)	+ (“+” indicates greater than 50% inhibition at 10 μM)	− (“−” indicates less than 50% inhibition at 10 μM)	+ (“+” indicates greater than 50% inhibition at 10 μM)	− (“−” indicates less than 50% inhibition at 10 μM)		− (“−” indicates less than 50% inhibition at 10 μM)		+ (“+” indicates greater than 50% inhibition at 10 μM)		− (“−” indicates less than 50% inhibition at 10 μM)	A3: inhibition of radioligand binding, human melanocortin (MC3) (Human Melanocortin (MC3); 10 µM): + (“+” indicates greater than 50% inhibition at 10 μM)
